Measurements taken from PMC8429728, “TNK1 is a ubiquitin-binding and 14-3-3-regulated kinase that can be targeted to block tumor growth” (Nature Communications, 2021).
Where two headings read alike, the source gives them in different places.

Tests used:
Experiment in all cases: biochemical
Design in all cases: Reaction Biology 371-kinase panel at Km ATP, per cent enzyme activity relative to DMSO, single dose in duplicate
CAMK2g = CAMK2g (Homo sapiens, UniProt Q13555); conditions: duplicate measurements, Km ATP
CAMK2g, sequence (Q13555 whole entry): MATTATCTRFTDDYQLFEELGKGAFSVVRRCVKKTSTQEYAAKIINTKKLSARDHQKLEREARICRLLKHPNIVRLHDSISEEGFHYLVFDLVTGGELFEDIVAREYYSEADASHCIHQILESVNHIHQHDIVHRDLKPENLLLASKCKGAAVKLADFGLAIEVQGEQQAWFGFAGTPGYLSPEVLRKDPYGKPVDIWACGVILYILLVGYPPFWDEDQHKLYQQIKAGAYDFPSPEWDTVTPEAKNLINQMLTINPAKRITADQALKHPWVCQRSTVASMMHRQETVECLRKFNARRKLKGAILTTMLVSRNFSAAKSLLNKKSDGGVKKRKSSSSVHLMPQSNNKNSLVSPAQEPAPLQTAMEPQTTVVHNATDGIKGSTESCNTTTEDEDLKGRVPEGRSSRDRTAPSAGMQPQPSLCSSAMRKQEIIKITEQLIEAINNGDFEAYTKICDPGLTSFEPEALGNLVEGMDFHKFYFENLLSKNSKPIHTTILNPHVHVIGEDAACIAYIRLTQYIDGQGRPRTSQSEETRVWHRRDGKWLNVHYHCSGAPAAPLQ
Outline: (§1)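 Activity of each kinase, normalised to DMSO-treated controls, served as the read-out. The inhibitor was tested at 300 nM against 371 kinases in vitro. Curves fitted by variable-slope sigmoidal dose-response, constrained to a bottom of 0, gave IC50.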

CAMK2b = CAMK2b (Homo sapiens, UniProt Q13554); conditions: duplicate measurements, Km ATP
Outline: as §1

MRCKa/CDC42BPA = MRCKa/CDC42BPA (Homo sapiens, UniProt Q5VT25); conditions: duplicate measurements, Km ATP
Outline: as §1

MEKK2 = target: T1, MEKK2 (Homo sapiens, UniProt Q9Y2U5); conditions: duplicate measurements, Km ATP
T1 construct: gene MAP3K2
T1 sequence (Q9Y2U5 whole entry): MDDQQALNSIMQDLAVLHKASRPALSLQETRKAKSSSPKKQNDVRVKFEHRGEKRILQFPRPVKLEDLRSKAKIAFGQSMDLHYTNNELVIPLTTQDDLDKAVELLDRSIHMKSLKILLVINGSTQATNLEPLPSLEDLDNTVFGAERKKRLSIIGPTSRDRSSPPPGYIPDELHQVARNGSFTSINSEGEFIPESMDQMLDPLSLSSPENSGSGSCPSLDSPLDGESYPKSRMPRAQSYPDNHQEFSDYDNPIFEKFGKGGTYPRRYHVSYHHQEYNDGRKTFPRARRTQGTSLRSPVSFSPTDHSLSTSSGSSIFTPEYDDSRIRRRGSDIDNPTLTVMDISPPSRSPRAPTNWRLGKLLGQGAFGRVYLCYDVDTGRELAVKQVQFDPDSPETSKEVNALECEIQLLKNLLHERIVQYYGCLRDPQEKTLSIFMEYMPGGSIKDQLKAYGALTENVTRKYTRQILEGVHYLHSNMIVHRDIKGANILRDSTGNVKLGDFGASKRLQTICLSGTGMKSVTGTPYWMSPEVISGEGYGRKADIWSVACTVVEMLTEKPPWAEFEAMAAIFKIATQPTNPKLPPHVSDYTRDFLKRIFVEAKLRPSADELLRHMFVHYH
Outline: as §1

MST3/STK24 = MST3/STK24 (Homo sapiens, UniProt Q9Y6E0); conditions: duplicate measurements, Km ATP
Outline: as §1

MYLK3 = MYLK3 (Homo sapiens, UniProt Q32MK0); conditions: duplicate measurements, Km ATP
Outline: as §1

PKCd = target: T2, PKCd (Homo sapiens, UniProt Q05655); conditions: duplicate measurements, Km ATP
T2 construct: gene PRKCD
T2 sequence (Q05655 whole entry): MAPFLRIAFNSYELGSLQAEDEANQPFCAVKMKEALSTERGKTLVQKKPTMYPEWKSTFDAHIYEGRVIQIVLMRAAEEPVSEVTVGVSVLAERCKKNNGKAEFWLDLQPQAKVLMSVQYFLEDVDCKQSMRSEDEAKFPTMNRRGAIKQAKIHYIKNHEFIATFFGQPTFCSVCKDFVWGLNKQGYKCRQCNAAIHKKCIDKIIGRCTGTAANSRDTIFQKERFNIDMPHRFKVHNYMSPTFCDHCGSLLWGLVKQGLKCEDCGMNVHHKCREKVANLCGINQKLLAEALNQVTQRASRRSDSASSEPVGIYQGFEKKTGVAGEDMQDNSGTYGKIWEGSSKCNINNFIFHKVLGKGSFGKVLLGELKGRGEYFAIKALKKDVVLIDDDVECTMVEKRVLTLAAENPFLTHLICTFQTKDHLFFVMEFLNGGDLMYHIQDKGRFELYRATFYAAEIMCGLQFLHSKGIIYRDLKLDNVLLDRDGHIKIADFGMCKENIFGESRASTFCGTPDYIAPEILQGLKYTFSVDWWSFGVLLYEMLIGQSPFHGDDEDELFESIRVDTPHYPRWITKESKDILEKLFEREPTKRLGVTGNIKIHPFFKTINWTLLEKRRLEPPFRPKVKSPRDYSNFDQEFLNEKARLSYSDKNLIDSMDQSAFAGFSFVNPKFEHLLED
Outline: as §1

TAOK1 = TAOK1 (Homo sapiens, UniProt Q7L7X3); conditions: duplicate measurements, Km ATP
Outline: as §1

MUSK = MUSK (Homo sapiens, UniProt O15146); conditions: duplicate measurements, Km ATP
MUSK, sequence (O15146 whole entry): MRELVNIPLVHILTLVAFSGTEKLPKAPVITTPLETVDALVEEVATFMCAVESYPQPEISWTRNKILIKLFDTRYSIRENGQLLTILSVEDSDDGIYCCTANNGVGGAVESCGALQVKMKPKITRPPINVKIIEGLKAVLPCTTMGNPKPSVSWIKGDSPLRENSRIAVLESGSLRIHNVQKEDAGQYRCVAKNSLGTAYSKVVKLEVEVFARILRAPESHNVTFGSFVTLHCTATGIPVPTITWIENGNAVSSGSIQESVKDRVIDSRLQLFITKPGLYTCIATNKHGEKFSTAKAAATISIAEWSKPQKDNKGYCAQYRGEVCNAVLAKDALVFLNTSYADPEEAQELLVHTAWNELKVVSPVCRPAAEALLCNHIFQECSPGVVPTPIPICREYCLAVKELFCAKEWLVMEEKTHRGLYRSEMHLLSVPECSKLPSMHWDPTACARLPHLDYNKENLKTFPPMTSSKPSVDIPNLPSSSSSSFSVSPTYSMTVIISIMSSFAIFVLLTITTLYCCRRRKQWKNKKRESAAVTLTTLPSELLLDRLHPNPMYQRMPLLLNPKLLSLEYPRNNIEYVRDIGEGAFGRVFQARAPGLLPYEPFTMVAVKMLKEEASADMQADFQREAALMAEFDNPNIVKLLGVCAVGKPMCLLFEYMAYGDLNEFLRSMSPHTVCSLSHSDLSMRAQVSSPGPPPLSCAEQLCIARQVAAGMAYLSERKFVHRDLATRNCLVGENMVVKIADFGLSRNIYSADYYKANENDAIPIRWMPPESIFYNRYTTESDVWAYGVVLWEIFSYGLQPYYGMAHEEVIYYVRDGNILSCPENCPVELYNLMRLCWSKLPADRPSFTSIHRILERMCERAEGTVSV
Outline: as §1

TSSK2 = TSSK2 (Homo sapiens, UniProt Q96PF2); conditions: duplicate measurements, Km ATP
TSSK2, sequence (Q96PF2 whole entry): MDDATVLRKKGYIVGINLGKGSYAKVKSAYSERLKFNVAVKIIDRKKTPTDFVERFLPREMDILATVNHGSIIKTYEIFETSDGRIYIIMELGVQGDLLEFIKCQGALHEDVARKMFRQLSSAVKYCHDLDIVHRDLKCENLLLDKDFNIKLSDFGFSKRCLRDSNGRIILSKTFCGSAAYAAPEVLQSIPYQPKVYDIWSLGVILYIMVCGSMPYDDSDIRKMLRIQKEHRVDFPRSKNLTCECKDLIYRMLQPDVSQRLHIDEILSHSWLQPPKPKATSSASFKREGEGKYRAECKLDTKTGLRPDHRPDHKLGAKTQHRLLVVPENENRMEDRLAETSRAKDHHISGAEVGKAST
Outline: as §1

PKCb2 = target: T3, PKCb2 (Homo sapiens, UniProt P05771); conditions: duplicate measurements, Km ATP
T3 construct: gene PRKCB; isoform beta II
Outline: as §1

ROCK2 = ROCK2 (Homo sapiens, UniProt O75116); conditions: duplicate measurements, Km ATP; read-out: % Enzyme Activity (relative to DMSO controls) / TP-0005801 (0.3µM) / Data 1
Outline: as §1

RSK3 = target: T4, RSK3 (Homo sapiens, UniProt Q15349); conditions: duplicate measurements, Km ATP
T4 construct: gene RPS6KA2
Outline: as §1

MEK3 = target: T5, MEK3 (Homo sapiens, UniProt P46734); conditions: duplicate measurements, Km ATP
T5 construct: gene MAP2K3
T5 sequence (P46734 whole entry): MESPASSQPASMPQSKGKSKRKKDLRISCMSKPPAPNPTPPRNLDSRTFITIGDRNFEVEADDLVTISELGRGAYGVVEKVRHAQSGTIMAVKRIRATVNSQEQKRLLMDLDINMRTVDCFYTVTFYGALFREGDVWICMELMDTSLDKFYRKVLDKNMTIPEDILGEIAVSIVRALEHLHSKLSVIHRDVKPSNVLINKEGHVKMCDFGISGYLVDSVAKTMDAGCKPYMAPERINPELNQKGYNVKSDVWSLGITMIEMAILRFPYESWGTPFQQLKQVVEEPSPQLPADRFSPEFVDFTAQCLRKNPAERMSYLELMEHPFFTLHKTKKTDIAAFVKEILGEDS
Outline: as §1

MAK = MAK (Homo sapiens, UniProt P20794); conditions: duplicate measurements, Km ATP
Outline: as §1

TNIK = TNIK (Homo sapiens, UniProt Q9UKE5); conditions: duplicate measurements, Km ATP
TNIK, sequence (Q9UKE5 whole entry): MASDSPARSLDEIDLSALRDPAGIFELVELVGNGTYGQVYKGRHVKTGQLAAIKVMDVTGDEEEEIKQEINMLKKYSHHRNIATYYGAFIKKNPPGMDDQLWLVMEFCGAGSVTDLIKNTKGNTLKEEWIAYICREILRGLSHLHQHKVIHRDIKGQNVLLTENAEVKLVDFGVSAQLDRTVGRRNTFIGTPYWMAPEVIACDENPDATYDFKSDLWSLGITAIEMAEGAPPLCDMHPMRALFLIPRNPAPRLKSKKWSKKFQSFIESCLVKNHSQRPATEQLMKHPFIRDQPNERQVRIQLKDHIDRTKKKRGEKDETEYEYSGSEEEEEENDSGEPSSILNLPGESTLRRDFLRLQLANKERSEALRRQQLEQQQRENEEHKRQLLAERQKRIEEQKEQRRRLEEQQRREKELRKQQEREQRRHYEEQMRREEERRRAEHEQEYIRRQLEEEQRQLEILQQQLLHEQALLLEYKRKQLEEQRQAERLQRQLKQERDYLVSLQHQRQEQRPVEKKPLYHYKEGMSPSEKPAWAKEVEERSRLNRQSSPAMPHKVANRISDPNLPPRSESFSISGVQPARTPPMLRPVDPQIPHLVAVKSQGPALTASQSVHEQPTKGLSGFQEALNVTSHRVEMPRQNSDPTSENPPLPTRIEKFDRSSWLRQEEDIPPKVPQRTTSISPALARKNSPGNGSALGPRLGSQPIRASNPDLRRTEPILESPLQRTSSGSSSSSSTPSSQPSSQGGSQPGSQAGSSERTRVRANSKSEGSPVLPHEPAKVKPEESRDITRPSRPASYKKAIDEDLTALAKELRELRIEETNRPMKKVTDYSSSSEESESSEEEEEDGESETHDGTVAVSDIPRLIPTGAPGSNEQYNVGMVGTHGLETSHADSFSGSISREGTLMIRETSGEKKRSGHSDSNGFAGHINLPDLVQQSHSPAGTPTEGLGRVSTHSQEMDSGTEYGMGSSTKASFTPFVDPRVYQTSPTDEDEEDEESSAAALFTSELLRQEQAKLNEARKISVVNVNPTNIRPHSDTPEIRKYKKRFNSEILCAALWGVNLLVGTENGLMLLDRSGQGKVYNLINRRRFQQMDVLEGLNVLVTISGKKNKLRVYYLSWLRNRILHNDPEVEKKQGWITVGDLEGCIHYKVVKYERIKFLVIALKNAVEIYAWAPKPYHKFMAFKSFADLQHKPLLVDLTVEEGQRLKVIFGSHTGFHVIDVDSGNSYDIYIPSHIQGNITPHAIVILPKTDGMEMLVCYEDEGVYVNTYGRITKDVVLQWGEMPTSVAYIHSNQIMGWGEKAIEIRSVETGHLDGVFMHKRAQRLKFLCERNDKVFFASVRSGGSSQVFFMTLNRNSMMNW
Outline: as §1

LOK/STK10 = LOK/STK10 (Homo sapiens, UniProt O94804); conditions: duplicate measurements, Km ATP
Outline: as §1

MLCK2/MYLK2 = MLCK2/MYLK2 (Homo sapiens, UniProt Q9H1R3); conditions: duplicate measurements, Km ATP
Outline: as §1

EPHB4 = EPHB4 (Homo sapiens, UniProt P54760); conditions: duplicate measurements, Km ATP
Outline: as §1

PKCepsilon = target: T6, PKCepsilon (Homo sapiens, UniProt Q02156); conditions: duplicate measurements, Km ATP
T6 construct: gene PRKCE
Outline: as §1

[1] = read-out: % Enzyme Activity (relative to DMSO controls) / TP-0005801 (0.3µM) / Data 1
[2] = read-out: % Enzyme Activity (relative to DMSO controls) / TP-0005801 (0.3µM) / Data 2

remaining activity at 0.3 µM (CAMK2g; [1]): 157%
remaining activity at 0.3 µM (CAMK2g; [2]): 153%
remaining activity at 0.3 µM (CAMK2b; [1]): 64.8%
remaining activity at 0.3 µM (CAMK2b; [2]): 64%
remaining activity at 0.3 µM (MRCKa/CDC42BPA; [1]): 104%
remaining activity at 0.3 µM (MRCKa/CDC42BPA; [2]): 100%
remaining activity at 0.3 µM (MEKK2; [1]): 86.8%
remaining activity at 0.3 µM (MEKK2; [2]): 81%
remaining activity at 0.3 µM (MST3/STK24; [1]): 106%
remaining activity at 0.3 µM (MST3/STK24; [2]): 103%
remaining activity at 0.3 µM (MYLK3; [1]): 110%
remaining activity at 0.3 µM (MYLK3; [2]): 109%
remaining activity at 0.3 µM (PKCd; [1]): 113%
remaining activity at 0.3 µM (PKCd; [2]): 99.7%
remaining activity at 0.3 µM (TAOK1; [1]): 73.3%
remaining activity at 0.3 µM (TAOK1; [2]): 68.3%
remaining activity at 0.3 µM (MUSK; [1]): 62%
remaining activity at 0.3 µM (MUSK; [2]): 57.2%
remaining activity at 0.3 µM (TSSK2; [1]): 88.4%
remaining activity at 0.3 µM (TSSK2; [2]): 86.9%
remaining activity at 0.3 µM (PKCb2; [1]): 94.4%
remaining activity at 0.3 µM (PKCb2; [2]): 93.6%
remaining activity at 0.3 µM (ROCK2): 103%
remaining activity at 0.3 µM (RSK3; [1]): 80.3%
remaining activity at 0.3 µM (RSK3; [2]): 79.2%
remaining activity at 0.3 µM (MEK3; [1]): 174%
remaining activity at 0.3 µM (MEK3; [2]): 173%
remaining activity at 0.3 µM (MAK; [1]): 98.4%
remaining activity at 0.3 µM (MAK; [2]): 94.1%
remaining activity at 0.3 µM (TNIK; [1]): 49.6%
remaining activity at 0.3 µM (TNIK; [2]): 48.7%
remaining activity at 0.3 µM (LOK/STK10; [1]): 74.7%
remaining activity at 0.3 µM (LOK/STK10; [2]): 73.7%
remaining activity at 0.3 µM (MLCK2/MYLK2; [1]): 104%
remaining activity at 0.3 µM (MLCK2/MYLK2; [2]): 100%
remaining activity at 0.3 µM (EPHB4; [1]): 103%
remaining activity at 0.3 µM (EPHB4; [2]): 102%
remaining activity at 0.3 µM (PKCepsilon; [1]): 93.6%
remaining activity at 0.3 µM (PKCepsilon; [2]): 93.3%
Structure (SMILES): COc1cc(N2CCN(C)CC2)c(C)cc1Nc1ncc(Br)c(Nc2cccnc2N(C)C)n1 [TP-5801]
